Assay results taken from paper PMC8037182, “Solvothermal Synthesis of Multiple Dihydropyrimidinones at a Time as Inhibitors of Eg5” (Molecules, 2021).

What was measured:
Eg5 motor protein = biological target: T1, Eg5 motor protein (Homo sapiens, UniProt P52732); assay: Lineweaver–Burk plot analysis of Eg5 ATPase inhibition; type: biochemical
T1 construct: Eg5 motor domain (amino acids 1-368) was cloned into pET22b; His-tag (C); made in house; host or cells: Escherichia coli BL21 (DE3)
T1 sequence (P52732 1-368): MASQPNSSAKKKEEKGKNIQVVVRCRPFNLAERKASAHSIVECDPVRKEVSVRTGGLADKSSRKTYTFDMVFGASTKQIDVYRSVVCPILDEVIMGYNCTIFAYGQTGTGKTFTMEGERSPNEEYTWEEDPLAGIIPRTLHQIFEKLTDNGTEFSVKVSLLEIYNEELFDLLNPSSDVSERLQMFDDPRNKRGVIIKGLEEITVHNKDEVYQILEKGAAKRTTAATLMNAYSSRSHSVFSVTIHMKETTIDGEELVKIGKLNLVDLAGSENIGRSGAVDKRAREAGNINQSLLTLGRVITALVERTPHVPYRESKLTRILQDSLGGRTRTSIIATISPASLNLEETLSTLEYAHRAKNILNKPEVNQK
Procedure: Assays followed methods similar to that described above for the primary Eg5 motor protein ATPase assay. For either study, compound C9 were tested at 60.50 μM, 30.25 μM, 15.13 μM, 0 μM. ATP concentration was varied from 52 μM to 417 μM. The enzyme concentration tested was 100 nM. All conditions were performed in three independent duplicate experiments. The data were analyzed with GraphPad Prism 6.02 software.
Figure 1 Steady-state inhibition of Eg5 by C9. […] Lines represent a curve fit of the global data set to a mixed-type inhibition model.

Caco-2 cell line = assay: Cytotoxicity MTS assay, Caco-2 cell line; type: cell-based; details: for OD490 Mean / OD490 Well 1 / OD490 Well 2 / OD490 Well 3: Caco-2 cell line
Summary of the method: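 Growth inhibition is measured by MTS conversion, read as absorbance at 490 nm after 2 h at 37 °C. Compounds act on cells seeded at 1000/well for 24 h across 0.5–100 µM final. Data derive from three independent duplicate experiments.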

Compound: CCOc1ccccc1C1NC(=S)NC(C)=C1C(=O)Nc1ccc(Cl)cc1 (stereo not shown) [C9]
- Slope of the Lineweaver-Burk plot, Mean (Eg5 motor protein; C9 15.13 uM): 0.649
- OD630 Value Mean (Eg5 motor protein; C9 15.13 uM, ATP 0.052 mM): 0.142
- OD630 Value Mean (Eg5 motor protein; C9 15.13 uM, ATP 0.104 mM): 0.177
- OD630 Value Mean (Eg5 motor protein; C9 15.13 uM, ATP 0.209 mM): 0.199
- OD630 Value Mean (Eg5 motor protein; C9 15.13 uM, ATP 0.313 mM): 0.226
- OD630 Value Mean (Eg5 motor protein; C9 15.13 uM, ATP 0.417 mM): 0.268
- Slope of the Lineweaver-Burk plot, Mean (Eg5 motor protein; C9 30.25 uM): 0.942
- OD630 Value Mean (Eg5 motor protein; C9 30.25 uM, ATP 0.052 mM): 0.126
- OD630 Value Mean (Eg5 motor protein; C9 30.25 uM, ATP 0.104 mM): 0.155
- OD630 Value Mean (Eg5 motor protein; C9 30.25 uM, ATP 0.209 mM): 0.174
- OD630 Value Mean (Eg5 motor protein; C9 30.25 uM, ATP 0.313 mM): 0.197
- OD630 Value Mean (Eg5 motor protein; C9 30.25 uM, ATP 0.417 mM): 0.231
- Slope of the Lineweaver-Burk plot, Mean (Eg5 motor protein; C9 60.50 uM): 1.374
- OD630 Value Mean (Eg5 motor protein; C9 60.5 uM, ATP 0.052 mM): 0.114
- OD630 Value Mean (Eg5 motor protein; C9 60.5 uM, ATP 0.104 mM): 0.138
- OD630 Value Mean (Eg5 motor protein; C9 60.5 uM, ATP 0.209 mM): 0.156
- OD630 Value Mean (Eg5 motor protein; C9 60.5 uM, ATP 0.313 mM): 0.171
- OD630 Value Mean (Eg5 motor protein; C9 60.5 uM, ATP 0.417 mM): 0.198
- type of Eg5 inhibition (Eg5 motor protein; Lineweaver–Burk plot, ATP varied 52–417 μM): mixed-type Eg5 inhibitor
- Ki (Eg5 motor protein; secondary plot of Lineweaver–Burk plot, slope versus concentration): 15.7 µM
- OD490 Mean (Caco-2 cell line; 0.5μM, first assay): 0.6579
- OD490 Well 1 (Caco-2 cell line; 0.5μM, first assay): 0.6600
- OD490 Well 2 (Caco-2 cell line; 0.5μM, first assay): 0.6452
- OD490 Well 3 (Caco-2 cell line; 0.5μM, first assay): 0.6685
- OD490 Mean (Caco-2 cell line; 0.5μM, second assay): 0.6430
- OD490 Well 1 (Caco-2 cell line; 0.5μM, second assay): 0.6499
- OD490 Well 2 (Caco-2 cell line; 0.5μM, second assay): 0.6217
- OD490 Well 3 (Caco-2 cell line; 0.5μM, second assay): 0.6574
- OD490 Mean (Caco-2 cell line; 0.5μM, third assay): 0.6809
- OD490 Well 1 (Caco-2 cell line; 0.5μM, third assay): 0.6676
- OD490 Well 2 (Caco-2 cell line; 0.5μM, third assay): 0.6999
- OD490 Well 3 (Caco-2 cell line; 0.5μM, third assay): 0.6752
- OD490 Mean (Caco-2 cell line; 1μM, first assay): 0.6557
- OD490 Well 1 (Caco-2 cell line; 1μM, first assay): 0.6594
- OD490 Well 2 (Caco-2 cell line; 1μM, first assay): 0.6683
- OD490 Well 3 (Caco-2 cell line; 1μM, first assay): 0.6393
- OD490 Mean (Caco-2 cell line; 1μM, second assay): 0.6328
- OD490 Well 1 (Caco-2 cell line; 1μM, second assay): 0.6398
- OD490 Well 2 (Caco-2 cell line; 1μM, second assay): 0.6387
- OD490 Well 3 (Caco-2 cell line; 1μM, second assay): 0.6200
- OD490 Mean (Caco-2 cell line; 1μM, third assay): 0.6578
- OD490 Well 1 (Caco-2 cell line; 1μM, third assay): 0.6898
- OD490 Well 2 (Caco-2 cell line; 1μM, third assay): 0.6914
- OD490 Well 3 (Caco-2 cell line; 1μM, third assay): 0.5921
- OD490 Mean (Caco-2 cell line; 10μM, first assay): 0.6390
- OD490 Well 1 (Caco-2 cell line; 10μM, first assay): 0.5664
- OD490 Well 2 (Caco-2 cell line; 10μM, first assay): 0.6539
- OD490 Well 3 (Caco-2 cell line; 10μM, first assay): 0.6968
- OD490 Mean (Caco-2 cell line; 10μM, second assay): 0.5939
- OD490 Well 1 (Caco-2 cell line; 10μM, second assay): 0.5553
- OD490 Well 2 (Caco-2 cell line; 10μM, second assay): 0.5431
- OD490 Well 3 (Caco-2 cell line; 10μM, second assay): 0.6832
- OD490 Mean (Caco-2 cell line; 10μM, third assay): 0.6521
- OD490 Well 1 (Caco-2 cell line; 10μM, third assay): 0.6349
- OD490 Well 2 (Caco-2 cell line; 10μM, third assay): 0.6214
- OD490 Well 3 (Caco-2 cell line; 10μM, third assay): 0.7001
- OD490 Mean (Caco-2 cell line; 25μM, first assay): 0.5635
- OD490 Well 1 (Caco-2 cell line; 25μM, first assay): 0.5780
- OD490 Well 2 (Caco-2 cell line; 25μM, first assay): 0.5488
- OD490 Well 3 (Caco-2 cell line; 25μM, first assay): 0.5637
- OD490 Mean (Caco-2 cell line; 25μM, second assay): 0.5347
- OD490 Well 1 (Caco-2 cell line; 25μM, second assay): 0.5232
- OD490 Well 2 (Caco-2 cell line; 25μM, second assay): 0.5214
- OD490 Well 3 (Caco-2 cell line; 25μM, second assay): 0.5594
- OD490 Mean (Caco-2 cell line; 25μM, third assay): 0.6041
- OD490 Well 1 (Caco-2 cell line; 25μM, third assay): 0.6789
- OD490 Well 2 (Caco-2 cell line; 25μM, third assay): 0.5214
- OD490 Well 3 (Caco-2 cell line; 25μM, third assay): 0.6121
- OD490 Mean (Caco-2 cell line; 50μM, first assay): 0.4407
- OD490 Well 1 (Caco-2 cell line; 50μM, first assay): 0.4378
- OD490 Well 2 (Caco-2 cell line; 50μM, first assay): 0.4511
- OD490 Well 3 (Caco-2 cell line; 50μM, first assay): 0.4331
- OD490 Mean (Caco-2 cell line; 50μM, second assay): 0.4117
- OD490 Well 1 (Caco-2 cell line; 50μM, second assay): 0.3953
- OD490 Well 2 (Caco-2 cell line; 50μM, second assay): 0.4678
- OD490 Well 3 (Caco-2 cell line; 50μM, second assay): 0.3721
- OD490 Mean (Caco-2 cell line; 50μM, third assay): 0.4510
- OD490 Well 1 (Caco-2 cell line; 50μM, third assay): 0.4963
- OD490 Well 2 (Caco-2 cell line; 50μM, third assay): 0.3954
- OD490 Well 3 (Caco-2 cell line; 50μM, third assay): 0.4613
- OD490 Mean (Caco-2 cell line; 100μM, first assay): 0.3208
- OD490 Well 1 (Caco-2 cell line; 100μM, first assay): 0.2950
- OD490 Well 2 (Caco-2 cell line; 100μM, first assay): 0.3313
- OD490 Well 3 (Caco-2 cell line; 100μM, first assay): 0.3360
- OD490 Mean (Caco-2 cell line; 100μM, second assay): 0.2995
- OD490 Well 1 (Caco-2 cell line; 100μM, second assay): 0.2898
- OD490 Well 2 (Caco-2 cell line; 100μM, second assay): 0.3121
- OD490 Well 3 (Caco-2 cell line; 100μM, second assay): 0.2965
- OD490 Mean (Caco-2 cell line; 100μM, third assay): 0.3309
- OD490 Well 1 (Caco-2 cell line; 100μM, third assay): 0.3633
- OD490 Well 2 (Caco-2 cell line; 100μM, third assay): 0.2374
- OD490 Well 3 (Caco-2 cell line; 100μM, third assay): 0.3921
- IC50 (Caco-2 cell line; Homo sapiens, Caco-2, MTS assay, 24 h exposure): 65.8 µM
- melting point: 253 to 257 °C
